Experimental data: patent publication US20250213614A1, “Modified RELA Protein for Inducing Interferon Expression and Engineered Immune Cells with Improved Interferon Expression” (Institut Curie, priority 2022, published 2025)

B1: IRF3: interferon Regulatory Factor 3, over-expressed from lentivector (protein, UniProt Q14653 1-427, looked up)
Interferon regulatory factor 3: MGTPKPRILPWLVSQLDLGQLEGVAWVNKSRTRFRIPWKHGLRQDAQQEDFGIFQAWAEATGAYVPGRDKPDLPTWKRNFRSALNRKEGLRLAEDRSKDPHDPHKIYEFVNSGVGDFSQPDTSPDTNGGGSTSDTQEDILDELLGNMVLAPLPDPGPPSLAVAPEPCPQPLRSPSLDNPTPFPNLGPSENPLKRLLVPGEEWEFEVTAFYRGRQVFQQTISCPEGLRLVGSEVGDRTLPGWPVTLPDPGMSLTDRGVMSYVRHVLSCLGGGLALWRAGQWLWAQRLGHCHTYWAVSEELLPNSGHGPDGEVPKDKEGGVFDLGPFIVDLITFTEGSGRSPRYALWFCVGESWPQDQPWTKRLVMVKVVPTCLRALVEMARVGGASSLENTVDLHISNSHPLSLTSDQYKAYLQDLVEGMDFQGPGES

Tests used:
CD19+ mKate2+A549 cells = test: CAR-T tumor spheroid killing assay; format: cell-based, human
Procedure: CD19+ mKate2+A549 cells were produced by lentiviral transduction using pCDH-CMV-CD19 puro and ILV-EF1a-mKate-9-X01 (Flash therapeutics) lentivectors. 1,000 cells were plated 4 days prior to co-culture in low-cluster 96 well plates (Costar #7007) and allowed to form spheroids in DMEM 10% FBS 5% PS. Total CD3+ T cells were isolated by negative selection from PBMCs (Stemcell #17951) and stimulated with Dynabeads at a ratio of 1:3 (beads:cell). Cells were cultured at 1 million per ml in X-VIVO 15 with 5% PS, 5% decomplemented human serum (Sigma) and 50 μM 2-mercaptoethanol (GIBCO #31350-010). 24 hours following TCR stimulation 100,000 cells in 100 μl were co-transduced with 100 μl of lentivector viral particles (pTRIP-SFFV-GFP or pTRIP-SFFV-GFPRELAK5R) combined with the CAR lentivirus (rLV.EFA.19BBz, Flash therapeutics) at a multiplicity of infection (MOI) of 10 (corresponding usually to less than 1 μl). Spinoculation was carried out at 1200 g for 2 hours at 25° C. Cells were expanded for 48 hours with fresh media and 300 U/ml IL-2. 3 days following transduction T cells were stained with CD19 CAR detection reagent (miltenyi 130-115-965) for 15 minutes at 4° C., washed twice and subsequently with secondary antibody (invitrogen #S21374) for 30 minutes at 4° C. Cells were fixed and acquired on a FACSVerse (BD). The next day, Dynabeads were removed by magnetic separation and 250, 500 or 1,000 CAR+ cells were added per well of A549 spheroids in quadruplicates. Plates were then placed in an IncuCyteS3 and images were acquired using a 10× objective ([…]/pixel) every 3 hours for 5 to 6 days. Images were analysed using the IncuCyte S3 software. At the end of the culture, supernatants were harvested and assayed for IFN concentrations.

[1] = test system: IFNL1 and IFNB transcripts; test: RT-qPCR gene expression analysis in CD4+ T cells; format: cell-based, human; details: IRF3 over-expression in CD4+ T cells, data not shown
Procedure: RNA was extracted from 0.4-1 million cells using the Nucleospin RNA II kits (Macherey-Nagel #740955.50). cDNA was synthesized using random primers (invitrogen #48190-011) from 0.1 μg RNA using Superscript III Reverse transcriptase (fisher scientific #18080044). Real-time qPCR (RT-qPCR) was carried out in 20 μl reactions using SYBR Green I Master (Roche #4887352001). Primers used were as follows: […]

Molecule | IFNL1 at the end of co-culture (CD19+ mKate2+A549 cells; 6 days co-culture, all dilutions of CART and RELA K5R cells) | tumor growth with lower numbers of CAR T cells (CD19+ mKate2+A549 cells; FIG. 6F, left panel) | tumor spheroid size / elimination of tumor cells (CD19+ mKate2+A549 cells; co-culture 5-6 days, CAR-positive cell numbers normalized, FIG. 6E, 6F) | proliferation rates as cause of improved killing capacity (CD19+ mKate2+A549 cells; data not shown) | IFNL1 and IFNB transcripts in response to cGAMP [1]
RELA K5R: RELA mutant converting five lysine residues (K122, K123, K310, K314, K315) to arginine, expressed from lentivector | detected | delay of tumor growth was also observed | significantly more efficiently eliminated | not due to increased proliferation rates | 
B1 |  |  |  |  | increased
